Source: patent US8318217B2, “Compositions comprising an anti-inflammatory blend” (Johnson & Johnson Consumer Companies, Inc., priority 2009, dated 2012)
In brackets after ≈: the same amount, converted by molar mass. Where two headings read alike, the source gives them in different places. Blank lines part the entries; values can stand above or below the compound they belong to.

What was measured:
NFκB = assay: NFκB-INHIBITION TEST (NF-κB gene reporter, TNFα-stimulated FB293 cells); assay type: cell-based, human; conditions: for NF-κB Gene Reporter Activation (Luminescence, L): 24 h; for NF-κB inhibition (in words): summary of Table 1; for NF-KB Activity (10 ug/ml): Tables 3a and 3b
Method: As used herein, “NFκB-inhibitor” means a compound that inhibits the cell transcription factor nuclear kappa-B (NFκB). […] The compound need not provide the recited Percent NFκB Inhibition at all concentrations from 1 microgram per milliliter to 100 micrograms per milliliter, but provides the recited Percent NFκB Inhibition at least one concentration in this range.
The NFκB-INHIBITION TEST is conducted in the following manner. FB293 cells, a stable transfected human epithelial cell line containing the gene reporter for NF-κB are used. They may be obtained from, e.g., Panomics (Fremont, Calif.). FB293 are plated at a density of 5×10^4 cells/mL in a suitable medium, e.g., Dulbecco's modified Eagle's medium (DMEM) supplemented with 10% fetal bovine serum (Invitrogen, San Diego, Calif.). The FB293 cells are stimulated with 100 ng/mL of Tumor Necrosis Factor-α (TNFα, available from Sigma-Aldrich of St Louis, Mo.) in the presence of the test sample. Separately, a control sample is tested wherein no test sample is applied. Following a 24-hour incubation at 37° C. with 5% CO2, cells are lysed with 40 μl of reporter lysis buffer (Promega, Madison, Wis.). A 20-μl aliquot of the lysate is assayed using a luciferase assay kit (Promega) and counted for 10 s in a Lmax luminometer (Molecular Devices, Sunnyvale, Calif.) with the data represented as the relative light unit/second. Percent NFκB Inhibition of the test sample is calculated as: NFκB Inhibition=[1−(Lsample/Lcontrol)]*100 where Lsample is the luminescence of the sample and Lcontrol is the luminescence of the control.
The NFκB-INHIBITION TEST described above was performed on test samples of Bay 11-7082 (Sigma-Aldrich, St. Louis, Mo.), Tetrahydrocurcuminoids CG (Sabinsa Corporation, Piscataway, N.J.), as well as various concentrations of 4-hexylresorcinol.
The NFκB-INHIBITION TEST described above was performed on a series of substituted resorcinols each having a concentration of 10 μg/ml.

IL-8 = IL-8 ASSAY (IL-8 cytokine release in KB cells); assay type: cell-based, human
Method: (§1) The IL-1α ASSAY was conducted as follows. KB cells were obtained from ATCC (ATCC#CCL-17, Manassas, Va.) and were plated in 96-well tissue culture treated plates at a density of 5000 cells/well in Dulbecco's modified Eagle's medium (DMEM) supplemented with 10% fetal bovine serum (Invitrogen Corp., San Diego, Calif.). After 48 hours, cells were treated with the agents described below at indicated concentrations for 24 hours, following which supernatants were collected and analyzed for IL-1α cytokine release using commercially available kits (Millipore Corp., Billerica, Mass.).
An IL-8 ASSAY was performed on a series of compositions using the method described in Example 5, except that the cytokine analyzed for was IL-8. Percent reduction in IL-8 was calculated for each sample. For samples containing a combination of an NF-κB inhibitor and an anti-inflammatory compound, the percent reduction in IL-8 relative to the percent reduction in IL-8 for the corresponding dose of anti-inflammatory compound is reported.

IL-1α = IL-1α ASSAY (IL-1α cytokine release in KB cells); assay type: cell-based, human; conditions: for Increase in IL-1α over untreated control (normalized): normalized to 4-hexylresorcinol 20 μg/mL
Method: An IL-1α ASSAY was performed on a plurality of agents to investigate the release of the pro-inflammatory mediator, IL-1α cytokine, in human epithelial cells.
as §1
Further IL-1α ASSAYS as described in Example 5 were performed. For ease of comparison, reported increases in IL-1α for 4-hexylresorcinol, phloretin, and combinations thereof were normalized to 4-hexylresorcinol (20 μg/mL, Comparative Example 2). Reported increases in IL-1α for tetrahydrocurcuminoids, feverfew, and combinations thereof were normalized to tetrahydrocurcuminoids (20 μg/mL, Comparative Example 3).
Further IL-1α ASSAYS as described in Example 5 were performed. For ease of comparison, reported increases in IL-1α were normalized to 4-hexylresorcinol (20 μg/mL, Comparative Example 2).

Interleukin-2 = assay: ANTI-INFLAMMATORY ASSAY (cytokine production by PHA-stimulated human lymphocytes); assay type: cell-based; conditions: PHA 10 μg/mL stimulated human leukocytes, 48 h
Method: The ANTI-INFLAMMATORY ASSAY assesses the ability of an agent to reduce the production of cytokines by human lymphocytes stimulated with the T-cell receptor (TCR) activating agent phytohaemagglutinin (PHA), and is conducted in the following manner. Human leukocytes are collected from a healthy adult […] via leukopheresis, and adjusted to a density of 1×10^6 cells/mL in serum free lymphocyte growth medium (ExVivo-15, Biowhittaker, Walkersville, Md.). PBLs are stimulated with 10 μg/mL PHA in the presence or absence of test samples following published methods (Hamamoto Y., et al. Exp Dermatol 2:231-235, 1993). Following a 48-hour incubation at 37° C. with 5% CO2, the supernatant is removed and evaluated for cytokine content using commercially available multiplex cytokine detection kit.

[1] = Homo sapiens, 10 μg/ml, series of substituted resorcinols, Table 2, read-out: Percent NF-κB Inhibition
[2] = Homo sapiens, read-out: Percent NF-κB Inhibition
[3] = Homo sapiens, read-out: Percent NFκB Inhibition

Compound: COc1cccc(OC)c1 [1,3-Dimethoxybenzene, reference compound]
inhibition at 10 µg/mL (NFκB; [1]): -1.7%

Compound: O=C(O)/C=C/c1ccc(O)cc1O [2,4-DIHYDROXYCINNAMIC Acid]
inhibition at 10 µg/mL (NFκB; [1]): -1.7%

Compound: O=Nc1ccc(O)c(N=O)c1O [2,4-Dinitrosorcinol]
inhibition at 10 µg/mL (NFκB; [2]): 51.8%

Compound: CCC(=O)c1ccc(O)cc1O [2′,4′-Dihydroxypropiophenone]
inhibition at 10 µg/mL (NFκB; [1]): -0.7%

Compound: COc1cccc(O)c1 [3-Methoxyphenol, reference compound]
inhibition at 10 µg/mL (NFκB; [1]): 0%

Compound: CCCCCC(=O)c1ccc(O)cc1O [4-Caproylresorcinol]
inhibition at 10 µg/mL (NFκB; [1]): 10.2%

Compound: Oc1ccc(Cl)c(O)c1 [4-Chloroesorcinol]
inhibition at 10 µg/mL (NFκB; [1]): 51.6%

Compound: CCCCCCCCCCCCc1ccc(O)cc1O [4-Dodecylresorcinol]
inhibition at 10 µg/mL (NFκB; [1]): 20.9%

Compound: CCCCCCc1ccc(O)cc1O [4-Hexylresorcinol]
Mean of IL-8 Release (IL-8; single agent 10 μg/mL, untreated 84.46, Table 9): 73.23 pg/mL
Mean of IL-8 Release (IL-8; single agent 20 μg/mL, untreated 46.05, Table 8): 14.58 pg/mL
Mean of IL-8 Release (IL-8; single agent 20 μg/mL, untreated 84.46, Table 9): 27.05 pg/mL
Mean of IL-1α Release (IL-1α; 20 μg/mL, 24 h, KB cells, untreated 0.72): 21.34 pg/mL
Increase in IL-1α over untreated control (normalized) (IL-1α; single agent 20 μg/mL, Table 6): 100
Increase in IL-1α over untreated control (normalized) (IL-1α; single agent 20 μg/mL, Table 7): 100
release of cytokine IL-1α (in words) (IL-1α; summary of Table 5): can increase the release of cytokine IL-1α
NF-κB Gene Reporter Activation (Luminescence, L) (NFκB; 1 μg/ml, TNFα 100 ng/ml stimulated FB293 cells): 106.1 ± 1.9
NF-κB Gene Reporter Activation (Luminescence, L) (NFκB; 5 μg/ml, TNFα 100 ng/ml stimulated FB293 cells): 55.1 ± 1.7
NF-κB Gene Reporter Activation (Luminescence, L) (NFκB; 10 μg/ml, TNFα 100 ng/ml stimulated FB293 cells): 29.3 ± 9.2
NF-κB Gene Reporter Activation (Luminescence, L) (NFκB; 50 μg/ml, TNFα 100 ng/ml stimulated FB293 cells, relative light unit/second per method): 9.3 ± 0.9
inhibition at 10 µg/mL (NFκB; [2]): 92.4%
inhibition at 1 µg/mL (NFκB; [3]): 1.9%
inhibition at 5 µg/mL (NFκB; [3]): 50.9%
inhibition at 10 µg/mL (NFκB; [3]): 72.9%
inhibition at 50 µg/mL (NFκB; [3]): 91.4%
NF-κB inhibition (in words) (NFκB): substantial reduction in NFκB activation

Compound: CCCCCCCCc1ccc(O)cc1O [4-Octylresorcinol]
inhibition at 10 µg/mL (NFκB; [1]): 99.5%

Compound: Cc1ccc(S(=O)(=O)/C=C/C#N)cc1 [Bay 11-7082, (E)-3-(4-methylphenylsulfonyl)-2-propenenitrile, reference compound]
NF-κB Gene Reporter Activation (Luminescence, L) (NFκB; 25 uM, FB293 cells): 11.3 ± 5.6
inhibition at 25 µM (NFκB; Homo sapiens, 25 uM, Table 1, read-out: Percent NFκB Inhibition): 89.5%
NF-κB inhibition (in words) (NFκB): strong NF-κB inhibition

Compound: CCCCCCCCCCCC1c2cc(c(O)cc2O)C(CCCCCCCCCCC)c2cc(c(O)cc2O)C(CCCCCCCCCCC)c2cc(c(O)cc2O)C(CCCCCCCCCCC)c2cc1c(O)cc2O (stereo not shown) [C-Undecylcalix[4]-resorcinarene]
Percent NF-κB Inhibition (NFκB; 10 μg/ml, series of substituted resorcinols, Table 2): 4.87%

Compound: C=CC(C)(C)c1cc(/C=C/C(=O)c2ccc(O)cc2)c(OC)cc1O [Licochalcone]
Anti-Inflammatory Activity (IC50 ug/ml) (Interleukin-2): 54.1 µg/mL
NF-KB Activity (10 ug/ml) (NFκB): 0%

Compound: Oc1ccc(CCc2ccccc2)c(O)c1 [Phenethylresorinol]
inhibition at 10 µg/mL (NFκB; [1]): 31.8%

IC50 (Interleukin-2; Leukocyte, read-out: Anti-Inflammatory Activity (IC50 ug/ml)): 19.9 µg/mL (≈ 72.6 µM)
Compound: O=C(CCc1ccc(O)cc1)c1c(O)cc(O)cc1O [Phloretin]
Increase in IL-1α over untreated control (normalized) (IL-1α; single agent 10 μg/mL, Table 6): 3.82
Increase in IL-1α over untreated control (normalized) (IL-1α; single agent 50 μg/mL, Table 6): 2.39
Increase in IL-1α over untreated control (normalized) (IL-1α; single agent 100 μg/mL, Table 6): 3.34
NF-KB Activity (10 ug/ml) (NFκB): 0%

Compound: CC1CCCC(=O)CCCCCc2cc(O)cc(O)c2C(=O)O1 (stereo not shown) [Zearalanone]
inhibition at 10 µg/mL (NFκB; [2]): 51%

Compound: CC1CCCC(O)CCCCCc2cc(O)cc(O)c2C(=O)O1 (stereo not drawn) [β-Zearalanol]
inhibition at 10 µg/mL (NFκB; [2]): 76.6%

Compound: C[C@H]1CCC[C@@H](O)CCC/C=C/c2cc(O)cc(O)c2C(=O)O1 [β-Zearalenol]
inhibition at 10 µg/mL (NFκB; [2]): 87.1%

Anti-Inflammatory Activity (IC50 ug/ml) (Interleukin-2): 77.3 µg/mL
Compound: Madecassoside [reference compound]
Increase in IL-1α over untreated control (normalized) (IL-1α; single agent 10 μg/mL, Table 7): 43.02
Increase in IL-1α over untreated control (normalized) (IL-1α; single agent 50 μg/mL, Table 7): 41.59
Increase in IL-1α over untreated control (normalized) (IL-1α; single agent 100 μg/mL, Table 7): 44.24
NF-KB Activity (10 ug/ml) (NFκB): 0%
